Experimental data from ChEMBL document CHEMBL1125619, “Effect of fluorine substitution on the adrenergic properties of 3-(tert-butylamino)-1-(3,4-dihydroxyphenoxy)-2-propanol” (J Med Chem, 1991).

Assays:
Adrenergic receptor beta = Adrenergic receptor beta (Rattus norvegicus, UniProt P18090+P10608+P26255); test: Beta adrenergic receptor agonistic activity for the stimulation of accumulation of cyclic AMP in cultured C6 glioma cells; assay type: functional, cell-based
[1] = target: Beta-1 adrenergic receptor (Cavia porcellus, UniProt B0FL73); test: Agonistic activity (beta-1 adrenergic receptor) for the percent maximal increase in contraction rate of isolated guinea pig atria; assay type: functional
Beta-1 adrenergic receptor (Cavia porcellus, UniProt B0FL73), sequence (B0FL73 whole entry): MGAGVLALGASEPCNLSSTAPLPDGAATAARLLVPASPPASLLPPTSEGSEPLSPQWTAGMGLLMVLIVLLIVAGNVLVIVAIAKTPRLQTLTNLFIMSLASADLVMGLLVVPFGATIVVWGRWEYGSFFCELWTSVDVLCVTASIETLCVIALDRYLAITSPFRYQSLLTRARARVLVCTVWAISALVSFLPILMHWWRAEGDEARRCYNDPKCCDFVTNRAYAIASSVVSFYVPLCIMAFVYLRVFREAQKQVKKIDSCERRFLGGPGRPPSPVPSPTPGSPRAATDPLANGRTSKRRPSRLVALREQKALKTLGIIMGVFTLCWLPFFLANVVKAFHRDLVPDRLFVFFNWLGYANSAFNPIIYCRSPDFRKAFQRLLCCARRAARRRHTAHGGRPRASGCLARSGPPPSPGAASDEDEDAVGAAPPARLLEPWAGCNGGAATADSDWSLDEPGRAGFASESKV

[2] = target: Beta-2 adrenergic receptor (Cavia porcellus, UniProt Q8K4Z4); test: Agonistic activity (beta2- adrenergic) for the percent maximal relaxation of isolated guinea pig trachea; assay type: functional, tissue-based
Beta-2 adrenergic receptor, sequence (Q8K4Z4 whole entry): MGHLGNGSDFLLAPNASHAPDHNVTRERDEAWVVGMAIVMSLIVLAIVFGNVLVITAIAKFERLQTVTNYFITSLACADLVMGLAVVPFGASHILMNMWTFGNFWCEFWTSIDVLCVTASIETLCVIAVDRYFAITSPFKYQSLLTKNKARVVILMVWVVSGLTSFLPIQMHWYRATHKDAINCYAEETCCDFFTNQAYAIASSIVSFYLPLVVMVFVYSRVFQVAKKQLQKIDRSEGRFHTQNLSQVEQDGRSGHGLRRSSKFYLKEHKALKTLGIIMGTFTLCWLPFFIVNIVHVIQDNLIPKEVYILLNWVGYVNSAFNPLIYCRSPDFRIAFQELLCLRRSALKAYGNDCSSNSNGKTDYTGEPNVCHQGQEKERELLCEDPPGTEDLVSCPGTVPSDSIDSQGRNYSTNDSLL

[3] = target: Beta-1 adrenergic receptor (Rattus norvegicus, UniProt P18090)
Beta-1 adrenergic receptor (Rattus norvegicus, UniProt P18090), sequence (P18090 whole entry): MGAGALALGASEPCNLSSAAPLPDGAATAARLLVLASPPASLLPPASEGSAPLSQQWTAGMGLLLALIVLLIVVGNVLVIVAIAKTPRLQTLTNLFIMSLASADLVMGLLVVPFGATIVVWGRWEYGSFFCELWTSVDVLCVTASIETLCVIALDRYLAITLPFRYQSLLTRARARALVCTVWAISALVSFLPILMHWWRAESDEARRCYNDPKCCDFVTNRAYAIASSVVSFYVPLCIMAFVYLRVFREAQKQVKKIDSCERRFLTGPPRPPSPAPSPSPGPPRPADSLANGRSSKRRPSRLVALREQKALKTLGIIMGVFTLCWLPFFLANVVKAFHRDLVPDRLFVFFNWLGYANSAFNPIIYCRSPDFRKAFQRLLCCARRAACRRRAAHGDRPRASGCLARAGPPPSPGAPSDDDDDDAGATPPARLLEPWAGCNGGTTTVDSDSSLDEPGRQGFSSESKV
Description: Compound was evaluated for the inhibition of binding of [3H]dihydroalprenolol from beta-1 adrenergic receptor of rat cerebral cortical membranes

EC50 (Adrenergic receptor beta) | EC50 [1] | EC50 [2] | Ki [3] | SMILES
9.2 nM | 8.6 nM | 38 nM | 60 nM | CC(C)(C)NCC(O)COc1ccc(O)c(O)c1F (stereo not drawn)
>> 10000 nM | 175 nM | > 10000 nM | 87000 nM | CC(C)(C)NCC(O)COc1cc(O)c(O)cc1F (stereo not drawn)
8.2 nM | 4.7 nM | 130 nM | 120 nM | CC(C)(C)NCC(O)COc1ccc(O)c(O)c1 (stereo not drawn)
– | – | 58 nM | – | CC(C)NCC(O)c1ccc(O)c(O)c1 (stereo not drawn) [ISOPROTERENOL]
